The source of these data is patent US10156521B2, “Red fluorescent aldehyde dehydrogenase (ALDH) substrate” (THE JOHNS HOPKINS UNIVERSITY, priority 2013, dated 2018).

This series can be described thus: Excitation and emission profiles by spectrofluorophotometer. The following applies: 100% ethanol. It is filed as physicochemical. As for the experimental part:
FIGS. 2a-2c show the excitation and emission profiles of candidate ALDH substrates. (a) AldeRed 493 aldehyde diethyl acetal, (b) AldeRed 588 aldehyde diethyl acetal, (c) AldeRed 659 aldehyde diethyl acetal. All the compounds were dissolved in 100% ethanol and both excitation and emission profiles were measured in 100% ethanol. The emission spectrum was measured with excitation at 493 nm for AldeRed 493 aldehyde diethyl acetal, at 560 nm for AldeRed 588, and at 650 nm for AldeRed 659-A. Blue line: excitation spectrum; red line: emission spectrum;
Reagents and Analyses. BODIPY® 576/589 succinimidyl ester and BODIPY® 650/665 succinimidyl ester were purchased from Life Technologies Inc., (Grand Island, N.Y.). (E)-4-(4-(dimethylamino)styryl)-1-(3-isothiocyanatopropyl)pyridin-1-ium chloride 1 was synthesized analogously to the previously reported di-butyl analog. Hassner, A., et al., J Org. Chem. 49, 2546-2551 (1984). Chemicals and solvents for synthesis and high-performance liquid chromatography (HPLC) were acquired from Sigma-Aldrich (Milwaukee, Wis.) or Fisher Scientific (Pittsburgh, Pa.), and used without further purification. HPLC was performed on an Agilent Prostar System equipped with a 325 Variable wavelength detector and controlled by Galaxie Software using a Phenomenex 4.6×250 mm Luna C18, 10 micron column. AldeRed 493 aldehyde diethyl acetal (FIGS. 14a-14b) and AldeRed 493-A (FIGS. 14c-14d) were chromatographed using Method 1. AldeRed 588 aldehyde diethyl acetal (FIGS. 15a-15b), AldeRed 588-A (FIGS. 15c-15d), AldeRed 659 aldehyde diethyl acetal (FIGS. 16a-16b), AldeRed 659-A (FIGS. 16c-16d) were chromatographed using Method 2. Method 1: Solvent A: 100% water; Solvent B: 100% methanol; 0-5 min 100% A, 5-25 min linear gradient from 100% A to 100% B, 25-30 min 100% B, 30-35 min linear gradient from 100% B to 100% A, 35-38 min 100% A, 2 mL/min. Method 2: Solvent A: 100% water; Solvent B: 100% acetonitrile; 0-20 min linear gradient from 90% A/10% B to 10% A/90% B; 20-25 min 10% A/90% B, 25-30 min linear gradient from 10% A/90% B to 90% A/10% B, 2 mL/min. ^1H-NMR spectra were obtained on a Bruker Avance 400 MHz Spectrometer. High resolution mass spectra were obtained by the University of Notre Dame Mass Spectrometry & Proteomics Facility (Notre Dame, Ind.) using ESI either by direct infusion on a Bruker micrOTOF-II or by LC elution via an ultra-high pressure Dionex® RSLC with C18 column coupled with a Bruker micrOTOF-Q II. The excitation and emission profiles of synthesized products were measured using a spectrofluorophotometer (Shimadzu, RF-5301pc, Columbia, Md.).
Three representative substrates of ALDH containing fluorophores that emit in the red region of the spectrum were synthesized (FIG. 1). […]

For the compound `CCOC(CNC(=S)NCCC[n+]1ccc(C=Cc2ccc(N(C)C)cc2)cc1)OCC.[Cl-]` [compound 4], the Maximum emission wavelength was found to be 590 nm and the Maximum excitation wavelength is recorded as 493 nm.
Compound `CCOC(CNC(=O)CCc1ccc2n1[B-](F)(F)[N+]1=C(c3ccc[nH]3)C=CC1=C2)OCC` [compound 5] came in with a Maximum emission wavelength of 599 nm and a Maximum excitation wavelength of 588 nm.
